Data as given in PubChem BioAssay AID330 (DTP/NCI, 2004).
Values joined by “and” are separate entries in the source; they are usually repeats but may differ in a detail not shown here. Equal values may be shown once. Toxic doses and inconclusive results are not listed.

System: P388 leukemia ip, CD2F1 mice, survival T/C
Assay: NCI In Vivo Anticancer Drug Screen. Data for tumor model P388 Leukemia (intraperitoneal) in CD2F1 (CDF1) mice
Conditions: endpoint: median survival time, higher = longer survival
In short: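 Mice carrying the transplanted tumor received test compound or vehicle. Survival was recorded in each group, and the value is the treated-group measurement divided by that of the vehicle-treated control group.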

[1] = dose: 50.0 mg/kg/injection, schedule: Q01DX005 (ip), vehicle: saline with Tween-80
[2] = dose: 100.0 mg/kg/injection, schedule: Q01DX005 (ip), vehicle: saline with Tween-80
[3] = dose: 200.0 mg/kg/injection, schedule: Q01DX005 (ip), vehicle: saline with Tween-80
[4] = dose: 50.0 mg/kg/injection, schedule: Q01DX005 (ip), vehicle: Klucel (hydroxypropylcellulose) (HPC)
[5] = dose: 50.0 mg/kg/injection, schedule: Q01DX009 (ip), vehicle: saline with Tween-80
[6] = dose: 100.0 mg/kg/injection, schedule: Q01DX009 (ip), vehicle: saline with Tween-80

C1CCC2C[N-]CCC2C1.C1CCC2C[N-]CCC2C1.C1CCC2C[N-]CCC2C1.C1CCC2C[N-]CCC2C1.[Cl][Rh][Cl] (stereo unspecified)
T/C (dose: 0.06 mg/kg/injection, schedule: Q03HX024 (ip), vehicle: saline): 105 % of control
T/C (dose: 0.13 mg/kg/injection, schedule: Q03HX008 (ip), vehicle: saline): 113 % of control
T/C (dose: 0.13 mg/kg/injection, schedule: Q03HX016 (ip), vehicle: saline): 105 % of control
T/C (dose: 0.13 mg/kg/injection, schedule: Q03HX024 (ip), vehicle: saline): 100 % of control
T/C (dose: 0.25 mg/kg/injection, schedule: Q01DX009 (ip), vehicle: saline): 107 % of control
T/C (dose: 0.25 mg/kg/injection, schedule: Q03HX008 (ip), vehicle: saline): 118 % of control
T/C (dose: 0.25 mg/kg/injection, schedule: Q03HX016 (ip), vehicle: saline): 110 % of control
T/C (dose: 0.25 mg/kg/injection, schedule: Q03HX024 (ip), vehicle: saline): 108 % of control
T/C (dose: 0.5 mg/kg/injection, schedule: Q01DX009 (ip), vehicle: saline): 110 % of control
T/C (dose: 0.5 mg/kg/injection, schedule: Q03HX008 (ip), vehicle: saline): 123 % of control
T/C (dose: 0.5 mg/kg/injection, schedule: Q03HX016 (ip), vehicle: saline): 116 % of control
T/C (dose: 0.5 mg/kg/injection, schedule: Q03HX024 (ip), vehicle: saline): 117 % of control
T/C (dose: 0.5 mg/kg/injection, schedule: Q04DX003 (ip), vehicle: saline): 111 % of control
T/C (dose: 1.0 mg/kg/injection, schedule: Q01DX001 (ip), vehicle: saline): 118 % of control
T/C (dose: 1.0 mg/kg/injection, schedule: Q03HX008 (ip), vehicle: saline): 121 % of control
T/C (dose: 1.0 mg/kg/injection, schedule: Q03HX016 (ip), vehicle: saline): 115 % of control
T/C (dose: 1.0 mg/kg/injection, schedule: Q04DX003 (ip), vehicle: saline): 113 % of control
T/C (dose: 1.0 mg/kg/injection, schedule: Q08DX002 (ip), vehicle: saline): 114 % of control
T/C (dose: 1.3 mg/kg/injection, schedule: Q01DX009 (ip), vehicle: water): 111 % of control
T/C (dose: 2.0 mg/kg/injection, schedule: Q01DX001 (ip), vehicle: saline): 119 % of control
T/C (dose: 2.0 mg/kg/injection, schedule: Q03HX008 (ip), vehicle: saline): 119 % of control
T/C (dose: 2.0 mg/kg/injection, schedule: Q04DX003 (ip), vehicle: saline): 115 % of control
T/C (dose: 2.0 mg/kg/injection, schedule: Q08DX002 (ip), vehicle: saline): 121 % of control
T/C (dose: 3.0 mg/kg/injection, schedule: Q01DX009 (ip), vehicle: water): 111 % of control
T/C (dose: 3.13 mg/kg/injection, schedule: Q04DX003 (ip), vehicle: saline with Tween-80): 150 % of control
T/C (dose: 4.0 mg/kg/injection, schedule: Q01DX001 (ip), vehicle: saline): 118 % of control
T/C (dose: 4.0 mg/kg/injection, schedule: Q03HX016 (ip), vehicle: saline): 110 % of control
T/C (dose: 4.0 mg/kg/injection, schedule: Q04DX003 (ip), vehicle: saline): 124 % of control
T/C (dose: 4.0 mg/kg/injection, schedule: Q08DX002 (ip), vehicle: saline): 123 % of control
T/C (dose: 6.25 mg/kg/injection, schedule: Q04DX003 (ip), vehicle: saline with Tween-80): 150 % of control
T/C (dose: 8.0 mg/kg/injection, schedule: Q08DX002 (ip), vehicle: saline): 123 % of control
T/C (dose: 12.5 mg/kg/injection, schedule: Q04DX003 (ip), vehicle: saline with Tween-80): 90 % of control

Cc1ccnc(-n2c(N)cc(=O)[nH]c2=S)c1
T/C (dose: 50.0 mg/kg/injection, schedule: Q01DX001 (ip), vehicle: saline with Tween-80): 86 % of control
T/C (dose: 100.0 mg/kg/injection, schedule: Q01DX001 (ip), vehicle: saline with Tween-80): 118 % of control
T/C (dose: 200.0 mg/kg/injection, schedule: Q01DX001 (ip), vehicle: saline with Tween-80): 100 % of control

O=C(NC(C(=O)NO)C(NO)c1ccccc1)c1ccccc1 (stereo unspecified)
T/C [1]: 103 % of control
T/C [2]: 102 % of control
T/C [3]: 102 % of control

CC(=O)Oc1c(OC(C)=O)c(C=O)c2c(OC(C)=O)c(-c3c(C)cc4c(C(C)C)c(OC(C)=O)c(OC(C)=O)c(C=O)c4c3OC(C)=O)c(C)cc2c1C(C)C
T/C (dose: 12.5 mg/kg/injection, schedule: Q01DX005 (ip), vehicle: Klucel (hydroxypropylcellulose) (HPC)): 102 % of control
T/C (dose: 25.0 mg/kg/injection, schedule: Q01DX005 (ip), vehicle: Klucel (hydroxypropylcellulose) (HPC)): 107 % of control
T/C [4]: 103 % of control and 111 % of control

Nc1c(/C=C/c2cc3cc(C4=NCCN4)ccc3o2)[nH]c2cc(C3=NCCN3)ccc12
T/C [4]: 245 % of control
T/C (dose: 100.0 mg/kg/injection, schedule: Q01DX005 (ip), vehicle: Klucel (hydroxypropylcellulose) (HPC)): 110 % of control and 227 % of control

Cc1cccc(NC(=O)NC2CCCCC2)c1
T/C (dose: 50.0 mg/kg/injection, schedule: Q01DX009 (ip), vehicle: saline): 103 % of control
T/C (dose: 100.0 mg/kg/injection, schedule: Q01DX009 (ip), vehicle: saline): 102 % of control
T/C (dose: 200.0 mg/kg/injection, schedule: Q01DX009 (ip), vehicle: saline): 93 % of control

Cc1ccc(C(C)C)c2c1CN(CCN1COc3c(C(C)C)ccc(C)c3C1)CO2
T/C (dose: 15.0 mg/kg/injection, schedule: Q01DX005 (ip), vehicle: saline with Tween-80): 99 % of control
T/C (dose: 30.0 mg/kg/injection, schedule: Q01DX005 (ip), vehicle: saline with Tween-80): 98 % of control
T/C (dose: 60.0 mg/kg/injection, schedule: Q01DX005 (ip), vehicle: saline with Tween-80): 91 % of control

CCOC(=O)NC(C#N)=C(Cl)Cl
T/C (dose: 6.25 mg/kg/injection, schedule: Q01DX009 (ip), vehicle: Klucel (hydroxypropylcellulose) (HPC)): 100 % of control
T/C (dose: 12.5 mg/kg/injection, schedule: Q01DX009 (ip), vehicle: Klucel (hydroxypropylcellulose) (HPC)): 100 % of control
T/C (dose: 25.0 mg/kg/injection, schedule: Q01DX009 (ip), vehicle: Klucel (hydroxypropylcellulose) (HPC)): 101 % of control

CC(=O)OC1C(OC(C)=O)C2C(C)CC3OC(=O)C(C)C3CC2(C)C1OC(C)=O (stereo unspecified)
T/C (dose: 6.25 mg/kg/injection, schedule: Q01DX009 (ip), vehicle: saline): 110 % of control
T/C (dose: 12.5 mg/kg/injection, schedule: Q01DX009 (ip), vehicle: saline): 103 % of control
T/C (dose: 25.0 mg/kg/injection, schedule: Q01DX009 (ip), vehicle: saline with Tween-80): 100 % of control (2×) and 123 % of control
T/C (dose: 25.0 mg/kg/injection, schedule: Q01DX009 (ip), vehicle: saline): 113 % of control
T/C [5]: 100 % of control and 121 % of control and 97 % of control
T/C [6]: 103 % of control and 104 % of control and 93 % of control
T/C (dose: 200.0 mg/kg/injection, schedule: Q01DX009 (ip), vehicle: saline with Tween-80): 96 % of control
T/C (dose: 400.0 mg/kg/injection, schedule: Q01DX009 (ip), vehicle: saline with Tween-80): 96 % of control

Cc1cc(=O)n(-c2ccc(S(=O)(=O)Nc3nccs3)cc2)c(C)c1C(=O)O
T/C [1]: 103 % of control
T/C [2]: 98 % of control
T/C [3]: 100 % of control

CSC(=S)n1nc(-c2ccccc2)c(N=Nc2ccccc2[N+](=O)[O-])c1-c1ccccc1
T/C (dose: 100.0 mg/kg/injection, schedule: Q04DX002 (ip), vehicle: Klucel (hydroxypropylcellulose) (HPC)): 105 % of control
T/C (dose: 200.0 mg/kg/injection, schedule: Q04DX002 (ip), vehicle: Klucel (hydroxypropylcellulose) (HPC)): 97 % of control

O=C1OCCC1(S)C(O)c1ccccc1 (stereo unspecified)
T/C (dose: 21.25 mg/kg/injection, schedule: Q01DX005 (ip), vehicle: acetone): 103 % of control
T/C (dose: 42.5 mg/kg/injection, schedule: Q01DX005 (ip), vehicle: acetone): 100 % of control
T/C (dose: 85.0 mg/kg/injection, schedule: Q01DX005 (ip), vehicle: acetone): 103 % of control

C/C(=N\NC(=S)N1CCC(C2CCN(C(=S)N/N=C(\C)c3ccccn3)CC2)CC1)c1ccccn1
T/C [1]: 112 % of control and 97 % of control
T/C [2]: 114 % of control and 122 % of control
T/C [3]: 118 % of control
T/C (dose: 400.0 mg/kg/injection, schedule: Q01DX005 (ip), vehicle: saline with Tween-80): 120 % of control

CCCn1cc2c3c(cccc31)C1C=C(C)CN(C)C1C2 (stereo unspecified)
T/C (dose: 6.25 mg/kg/injection, schedule: Q01DX005 (ip), vehicle: saline with Tween-80): 100 % of control and 107 % of control
T/C (dose: 12.5 mg/kg/injection, schedule: Q01DX005 (ip), vehicle: saline with Tween-80): 99 % of control and 100 % of control and 116 % of control
T/C (dose: 25.0 mg/kg/injection, schedule: Q01DX005 (ip), vehicle: saline with Tween-80): 98 % of control and 105 % of control and 108 % of control
T/C [2]: 117 % of control

NCc1c(Cl)c(Cl)c(CN)c(Cl)c1Cl
T/C [5]: 91 % of control
T/C (dose: 50.0 mg/kg/injection, schedule: Q04DX003 (ip), vehicle: saline with Tween-80): 91 % of control
T/C [6]: 91 % of control
T/C (dose: 100.0 mg/kg/injection, schedule: Q04DX003 (ip), vehicle: saline with Tween-80): 91 % of control
T/C (dose: 200.0 mg/kg/injection, schedule: Q04DX003 (ip), vehicle: saline with Tween-80): 87 % of control
